# Laboratory results published in patent US20080199899A1, “Method For Screening Modulators of Mitochondrial Functioning and New Modulators Obtained” (priority 2002, published 2008).
# Non-standard residues stand in square brackets, D forms with d. Residues, ends and D or L forms follow the SMILES beside them. Phe(ol) = N[C@H](CO)Cc1ccccc1; Aib = CC(C)(N)C(=O)O
# How the values were obtained:
# [1] = tested on: purified mouse liver mitochondria; experiment: Real-time flow cytometry (FCM) analysis of mitochondrial morphology (FSC/SSC) on isolated mitochondria; assay type: biochemical; settings: for changes of mitochondrial size (FSC) and structure (SSC) (in words): isolated mitochondria, 1-30 μM Ca2+, 20 μM CCCP, alamethicin 5 μg/ml; for induction of MMP / activity on isolated mitochondria (in words): real time test on isolated mitochondria
# Protocol: (§1) Liver mitochondria were isolated from 3-4 weeks old Balb-c mice (IFFA CREDO, Saint Germain sur l'Arbresle, France). Animals were fasted overnight before being killed by […] dislocation. Liver mitochondria were prepared as described (Jacotot, 2000). All steps were carried out at 4° C. Finally, the organelles were resuspended in ‘swelling buffer’, composed by 200 mM sucrose, 5 mM succinate, 10 mM Tris-MOPS (pH 7.4), 1 mM H3PO4, 2 μM Rotenone, and 10 μM EGTA at pH=7.4. Spectrophotometric and flow cytometric analyses were performed in this buffer. The protein content of isolated mitochondria was determined by the Bradford assay.
# Fluorescence-activated flow cytometry was performed using a 3-color FACSCalibur cytometer equipped with a 15 mW air-cooled 488 nm argon laser (Becton Dickinson, San Jose, Calif.). Mitochondria analyses were performed after appropriate settings of the Forward angle light scatter (FSC)—Side angle light scatter (SSC) detectors (see FIG. 1). Discrimination between mitochondria and cellular debris and noise background was performed by an appropriate gating on FSC-SSC scatter plots (FIG. 1) (Radcliff G, Jaroszeski M J 1998 Methods Mol Biol 91:1-24 Basics of flow cytometry). Systematic confirmation of the validity of this gating was obtained by a labeling of mitochondria with the ΔΨm-insensitive mitochondrial dye MitoTracker® Green (MTG, Molecular Probes, Eugene, Oreg.) (Jacotot et al., 2001). Briefly mitochondria (1.5 μg proteins) were respuspended in 400 μl swelling buffer containing 200 nM MTG for 15 min at room temperature. The organelles were immediately analyzed on the cytometer with the CellQuest Pro software (Becton Dickinson). MTG fluorescence was collected in the FL-1 channel (530+/−15 nm) and analyzed in logarithmic amplifier mode, using the PMT at a voltage adjusted to 907. Data from 20,000 gated mitochondria were recorded and analyzed.
# Mitochondrial size was analyzed through the light scattered by the organelles at low angle using the Forward scatter (FSC) photodiode. Signals were collected using the E-00 setting, with a logarithmic amplification gain of 5.41. Mitochondrial structure was evaluated by the light scattered in the perpendicular direction. It was assessed by the sensitive Side scatter (SSC) photomultiplier tube (PMT), using a voltage of 581, and a linear amplification gain adjusted to 4.27. The morphological changes related to swelling of purified mitochondria were monitored by the increase in mitochondrial size (FSC) and the decrease in the organelle structure (SSC) using the CellQuest Pro software. The FSC/SSC ratio was calculated by the FCS Assistant software and permitted to integrate both variations in size and structure into only one parameter.
# Real-time experiments were performed on mitochondrial samples containing 1.5 μg proteins in 800 μl (=2 ng/µl) of swelling buffer. Samples were acquired on the flow cytometer for 5 minutes to record basal morphological criteria. Then reagents were added to samples, and variations in light scattering were recorded for the following 15 minutes. The sample flow rate was settled to 12 μl+/−3 μl/min for both fixed- and real-time analyses.
# Swelling curves were obtained after plotting FSC or SSC parameters versus time, and division of the time scale into discrete periods of 1 minute. The mean FSC and SSC of mitochondria from every period were calculated by the CellQuest Pro software, and were exported into the Microsoft Excel software.
# [2] = tested on: purified mouse liver mitochondria; experiment: Real-time FCM analysis of mitochondrial transmembrane potential (ΔΨm) with JC-1; assay type: biochemical; settings: JC-1 loaded mitochondria; 20 μM mClCCP, 30 μM Ca2+ or 5 μM Alamethicin
# Protocol: as §1
# Mitochondrial transmembrane potential (ΔΨm) was assessed by 5,5′,6,6′,-tetracholoro-1,1,3,3′-tetraethylbenzimidazolyl carbocyanine iodide (JC-1, Molecular Probes) incorporation. This potential-sensitive cationic dye accumulates in the mitochdndrial matrix according to the Nernst equation (Reers et al., 1991). JC-1 green fluorescence, associated with JC-1 monomers was collected in the FL-1 channel. JC-1 orange fluorescence, associated with the formation of J-aggregates was collected in the FL-2 channel (585+/−21 nm) (Reers et al, 1991). Both fluorescences were recorded in logarithmic amplifier mode, using the PMT at a voltage adjusted to 907 and 622 respectively. Spectral overlap was avoided by adjusting compensation network as follows: FL1-18.5% FL2 and FL2-25.4% FL1. The JC-1 orange/green fluorescence ratio was calculated with the FCS Assistant software.
# Real-time monitoring of ΔΨm was performed on mitochondrial samples containing 1.5 μg proteins in 400 μl of swelling buffer. […] Then drugs were added to the sample, and ΔΨm variations were recorded for the following 16 minutes. Depolarization curves were drawn as previously indicated for swelling curves; the time scale was divided into discrete periods of 1 minute and the mean of JC-1 orange and JC-1 green fluorescence of the corresponding mitochondrial subsets was calculated by the CellQuest Pro software and exported into the Microsoft Excel software.
# [3] = tested on: purified mouse liver mitochondria; experiment: FCM analysis of PTP-dependant and PTP-independent MMP after pre-treatment with inhibitors; assay type: biochemical; settings: for effect on alamethicin induced MMP (in words): 50 μM BA, 10 μM CsA or 10 μM Ruthenium red, then alamethicin 5 μg/ml
# Protocol: Mitochondrial Membrane Permeabilization (MMP) was induced by 1-30 μM Calcium (CaCl2, MERCK), and 5 μg/ml Alamethicin (SIGMA). Ruthenium Red (SIGMA) and the PTP inhibitor Cyclosporine A (CSA, BIOMOL) were added at 10 μM 4 minutes before the addition of the MMP-inducing agents. The uncoupler carbonyl cyanide m-chlorophenylhydrazone (mClCCP, SIGMA) was used at 20 μM to completely collapse A m.
# Fixed-time analyses were performed on mitochondrial samples containing 10 μg proteins in 100 μl of swelling buffer. Samples were submitted to MPP-inducing reagents for 30 min at 25° C. Samples were immediately analyzed by flow cytometry, and data from 20.000 mitochondria were recorded. The percentage of specific swelling determined on forward scatter was calculated as follows;
# Fixed-time detection of ΔΨm was performed on mitochondrial samples containing 10 μg proteins in 100 μl of swelling buffer. Samples were submitted to MPT-inducing drugs for 15 min at 25° C., and JC-1 was added at 800 nM for 15 min at 37° C. in the dark. Samples were immediately analyzed by flow cytometry, and data from 20.000 mitochondria (gated on FSC-SSC parameters) were recorded. This assay permitted to quantify the percentage of highly energized mitochondria (with both orange and green fluorescence) and depolarized mitochondria (with green fluorescence only) as depicted in part C2 of FIG. 1.
# Mitochondria were exposed 5 minutes to 50 μM BA, 10 μM Csa, or 10 μM Ruthenium red followed by 30 min treatment with Ca^2+ (30 μM) or alamethicin (5 μg/ml). Then, mitochondria were subjected to FCM analysis of ΔΨm (JC-1 orange fluorescence) and SSC (Mean+/−SD; n=3).
# Jurkat cells = experiment: Apoptosis by FACS analysis (ΔΨm loss and cell membrane permeability), Jurkat cells; assay type: cell-based, human; settings: 24 hours incubation with 5 to 20 μM peptide
# [4] = tested on: mammary adenocarcinoma MDA-MD-231 cells; experiment: Apoptosis by FACS analysis (ΔΨm loss and cell membrane permeability), adenocarcinoma cells; assay type: cell-based, human; settings: Adenocarcinoma MDA-MD231 cells; 24 hours incubation with 5 to 20 μM peptide
# HeLa cells = experiment: Apoptosis of HeLa cells by fluorescent microscopy or FACS; assay type: cell-based, human; settings: 5 or 10 μM, 24 or 48 h
# Protocol: Characterization of apoptosis induced on cultured human cells by treatment with MMP inducing peptides. The example shown relates to peptide seq. ID no 3 […]. […] The peptide was then tested on cell: the HeLa cells in exponential growth phase were treated with peptide or mock treated, then analyzed by fluorescent microscopy or FACS to ascertain apoptosis.
# Caspase-3 activation was performed using a fluorescent inhibitor of caspase-3 (FLICA, FAM-DEVD-FMK) from the CaspaTag™ kit (Intergen). The loss of plasma membrane integrity occurring during apoptosis of HeLa cells was determined by 7-Amino Actinomycin D. (7-AAD) incorporation (SIGMA). […] 7-AAD was added to cells at 37° C. for 15 min. Cells were trypsinized, resuspended in PBS and immediately acquired on the FACSCalibur. FAM-DEVD-FMK related fluorescence was detected using the Fl-1 channel. 7-AAD fluorescence was collected in the Fl-3 channel (>650 nm).
# HeLa cells were stained by […] for 15 minutes and observe d using a DM IRB inverted fluorescence microscope (Leica).
# HeLa cells were incubated for 24 or 48 h with 5 or 10 μM of peptide Seq. ID no 3 or left untreated. A. Cells were then stained with JC-1 and Hoechst dyes. […] B. Fluorescence microscopy of the cells, after 24 hours incubation with or without 5 μM peptide and staining with JC-1 dye. […]
# [5] = tested on: purified mouse liver mitochondria; assay type: biochemical; settings: FIG. 9A
# Protocol: as §1
# Large amplitude swelling was determined with Ultrospec 3300 pro […] (Amersham Pharmacia Bioech, Cambridge, England) by measuring Absorbance at 545 nm (A545) (Bernardi et al., 1992). […] Basal absorbance was recorded for 4 minutes, MPP-inducing reagents were added to samples and large amplitude swelling was monitored by the decrease in absorbance for the following 16 minutes. Data were recorded using the Data capture software (Excel, Uppsala, Sweden). […] Percentages of specific swelling were calculated as follows: (ACa2+−AReagent)×100/(ACa2+−Ainit) were ACa2+, AReagent and Ainit correspond to the absorbance value obtained for CaCl2-treated, reagent-treated and pre-treated mitochondria respectively.
# isolated mitochondria = experiment: Cytochrome C release from isolated mitochondria by western blot on the supernatant; assay type: biochemical, mouse; settings: 10 μM peptide, 30 minutes; FIG. 9B
# Protocol: B. Cytochrome C release: untreated mitochondria (1), or treated with 5 μM Alamethicin (2) or 10 μM peptide seq. ID No 2 during 30 minutes were assayed for cytochrome C release by western blot on the supernatant.
# [6] = 50 μM BA or 10 μM CsA 5 min, then 30 μM Ca2+ 30 min
compound,measurement,setting,value
"N#CC(C#N)=NNc1cccc(Cl)c1 [CCCP, carbonyl cyanide meta-chlorophenylhydrazone]",changes of mitochondrial size (FSC) and structure (SSC) (in words),[1],low but significant granularity (SSC) decrease without detectable size (FSC) changes
same,changes of JC-1 orange fluorescence (ΔΨm) (in words),[2],rapid decrease in JC-1 orange fluorescence
[Ca+2] [Calcium],changes of mitochondrial size (FSC) and structure (SSC) (in words),[1],dose-dependent SSC decrease and FSC increase
same,changes of JC-1 orange fluorescence (ΔΨm) (in words),[2],decrease in JC-1 orange fluorescence
N.N.N.N.N.N.N.N.N.N.N.N.N.N.[Cl-].[Cl-].[Cl-].[Cl-].[Cl-].[Cl-].[O-2].[O-2].[Ru+3].[Ru+3].[Ru+4] [Ruthenium red],inhibition of Ca2+ induced SSC decrease,"[3]; 10 μM Ruthenium red 5 min, then 30 μM Ca2+ 30 min",80%
same,inhibition of Ca2+ induced ΔΨm loss,"[3]; 10 μM Ruthenium red 5 min, then 30 μM Ca2+ 30 min, JC-1 orange fluorescence",80%
same,effect on alamethicin induced MMP (in words),[3],not affected
CC(=O)NC(C)(C)C(=O)N1CCC[C@H]1C(=O)NC(C)(C)C(=O)N[C@@H](C)C(=O)NC(C)(C)C(=O)N[C@@H](C)C(=O)N[C@@H](CCC(N)=O)C(=O)NC(C)(C)C(=O)N[C@H](C(=O)NC(C)(C)C(=O)NCC(=O)N[C@@H](CC(C)C)C(=O)NC(C)(C)C(=O)N1CCC[C@H]1C(=O)N[C@H](C(=O)NC(C)(C)C(=O)NC(C)(C)C(=O)N[C@@H](CCC(=O)O)C(=O)N[C@@H](CCC(N)=O)C(=O)N[C@H](CO)Cc1ccccc1)C(C)C)C(C)C [alamethicin] (Ac-[Aib]P[Aib]A[Aib]AQ[Aib]V[Aib]GL[Aib]PV[Aib][Aib]EQ[Phe(ol)]),changes of mitochondrial size (FSC) and structure (SSC) (in words),[1],simultaneous FSC increase and SSC decrease
same,changes of JC-1 orange fluorescence (ΔΨm) (in words),[2],decrease in JC-1 orange fluorescence
CO[C@H](C/C=C\C=C\CC/C=C/C[C@H](C)/C=C/C(=C\C(=O)O)CC(=O)O)/C(C)=C\C=C(/C)C(=O)O [bongkrekic acid],effect on Ca2+ induced SSC decrease (in words),[3]; [6],partly affect
same,effect on Ca2+ induced ΔΨm loss (in words),[3]; [6],strongly reduces
same,effect on alamethicin induced MMP (in words),[3],not affected
EHWSYWLRPG-GGGGS,induction of MMP / activity on isolated mitochondria (in words),[1],not active on mitochondria
same,% of apoptotic cells,Jurkat cells,8%
same,% of apoptotic cells,[4],7%
EHWSYWLRPGGGGGSLLFIHFRIGCRHSRIG [SEQ ID N^o 11],% of apoptotic cells,Jurkat cells,18%
same,% of apoptotic cells,[4],92%
GG*CRGDMFG*CG,induction of MMP / activity on isolated mitochondria (in words),[1],not found inducing MMP
RKKRRQRRRCGGLANKKGAWLDSTKATRYLVKTESWILRN [SEQ ID N^o 4],apoptosis of HeLa cells (in words),HeLa cells,mitochondrio-toxic activity
RKKRRQRRRCGGLETRTETWMSSEGAWKQIQKVETWALRH [SEQ ID N^o 3],apoptosis of HeLa cells (in words),HeLa cells,induction of apoptosis in a dose and time related effect
same,specific swelling of isolated mitochondria (in words),[5],dose-dependant specific swelling
same,release of Cytochrome C from isolated mitochondria,isolated mitochondria,release of Cytochrome C
